Among the test systems are 786-0; A498; ACHN; BT-549; HOP-92; Hs-578T; K562; LOX IMVI; NCI-H23; NCI-H460; NCI-H522; RXF 393; SF-268; SK-MEL-5; SW-620; UACC-257; UACC-62; UO-31; OVCAR-3; SR.
Holding throughout (assay): DTP human tumour cell line panel, 48 h

Each structure is given as a SMILES string.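 A five-concentration, 48-hour dose response in 96-well plates underlies each endpoint, interpolated linearly between surrounding concentrations. GI50 = concentration required for 50% inhibition of growth.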 Activity calls are given as the source filed them. Cut-off read from the data, not from the text of the source: active = GI50 up to about 1.1 µM and inactive = higher.

Take `COC(=O)c1c(C#N)c(N)nc2c1CCC2`: the GI50 – broadly, the concentration at which growth is held to half of that of the control – in the assay on 786-0 is > 100 µM (inactive); with A498, > 100 µM (inactive); in the assay on ACHN, > 100 µM (inactive); in the assay on BT-549 it was > 100 µM (inactive); in the assay on HOP-92, > 100 µM (inactive); in the assay with Hs-578T it was 70 µM (inactive). Moreover, the GI50 in the assay on K562, with LOX IMVI, in the assay on NCI-H23, with NCI-H460, in the assay on NCI-H522 and with RXF 393 was > 100 µM (inactive) throughout. In addition, the GI50 in the assay on SF-268 is > 100 µM (inactive); in the assay on SK-MEL-5, > 100 µM (inactive); in the assay on SW-620, > 100 µM (inactive); with UACC-257 it was > 100 µM (inactive); in the assay on UACC-62, > 100 µM (inactive); with UO-31, 69.7 µM (inactive).
As for `CCOC(=O)[C@@]12NN=N[C@@H]1[C@H]1CO[C@H](c3ccccc3)N1C2=O`, the GI50 with 786-0 is 5.97 µM (inactive); in the assay on A498, 10.6 µM (inactive); in the assay with ACHN, 13.4 µM (inactive); with BT-549, 11.7 µM (inactive); in the assay on HOP-92, 1.64 µM (inactive); in the assay with Hs-578T, 4.6 µM (inactive). Further, the GI50 was 2.18 µM (inactive) with LOX IMVI; 12.5 µM (inactive) with NCI-H23; 4.44 µM (inactive) with NCI-H460; 3.01 µM (inactive) in the assay with NCI-H522; 8.53 µM (inactive) in the assay with OVCAR-3; 3.58 µM (inactive) in the assay with RXF 393. The GI50 in the assay on SF-268 was 11 µM (inactive); in the assay with SK-MEL-5, 11.1 µM (inactive); in the assay with SW-620 it was 7.67 µM (inactive); in the assay with UACC-257, 6.44 µM (inactive); in the assay on UACC-62, 7.6 µM (inactive).
For the compound `Nc1nc(Cl)c(N)c(NCC2(CO)CC(Cc3ccccc3)C2)n1` (configuration not stated), the GI50 in the assay on 786-0 is > 91.4 µM (inactive); in the assay on ACHN, 97.9 µM (inactive); with BT-549, 42.5 µM (inactive); in the assay with HOP-92 it was > 77.3 µM (inactive); in the assay with Hs-578T it was > 39.8 µM (inactive); in the assay on K562, 0.218 µM (active). Moreover, the GI50 was 2.42 µM (inactive) in the assay with LOX IMVI; 0.865 µM (active) in the assay on NCI-H23; > 55.5 µM (inactive) in the assay with NCI-H460; 28.5 µM (inactive) with NCI-H522; 26.3 µM (inactive) in the assay on OVCAR-3; > 42.6 µM (inactive) in the assay on RXF 393. The GI50 with SF-268 was > 92.9 µM (inactive); with SK-MEL-5 it was 0.0766 µM (active); in the assay with SW-620, > 72.8 µM (inactive); in the assay with UACC-257, 0.127 µM (active); in the assay with UACC-62, > 76.9 µM (inactive); with UO-31, > 100 µM (inactive).
Regarding `CC(=O)O[C@H]1CC[C@@H](OC(C)=O)[C@H]2[C@H](O)[C@H](O)[C@@H]1n1c(=O)n(-c3ccccc3)c(=O)n12`, the GI50 in the assay with 786-0, in the assay on A498, in the assay with ACHN, in the assay with BT-549, with HOP-92 and in the assay on Hs-578T was > 100 µM (inactive) throughout. Besides, the GI50 in the assay with K562, with LOX IMVI, in the assay with NCI-H23, with NCI-H522, in the assay on OVCAR-3 and in the assay on RXF 393 was > 100 µM (inactive) throughout. Besides, the GI50 in the assay on SF-268, with SK-MEL-5, with SW-620, with UACC-257, in the assay with UACC-62 and in the assay with UO-31 was > 100 µM (inactive) in each case.
Consider `Nc1sccc1S(=O)(=O)c1ccsc1N`, for which the GI50 in the assay with 786-0, with A498, with ACHN, in the assay with BT-549, with HOP-92 and in the assay with Hs-578T was > 100 µM (inactive) in each case. Moreover, the GI50 with LOX IMVI, in the assay with NCI-H23, in the assay on NCI-H460, in the assay with NCI-H522, with OVCAR-3 and in the assay on SF-268 was > 100 µM (inactive) in each case. Moreover, the GI50 in the assay with SK-MEL-5, in the assay with SW-620, in the assay on UACC-257, in the assay on UACC-62 and with UO-31 was > 100 µM (inactive) each time.
Take `COc1ccc(C(OCC2OC(n3cnc4c(=O)n(Cc5ccccc5[N+](=O)[O-])nnc43)C(O)C2O)(c2ccccc2)c2ccc(OC)cc2)cc1` (configuration not stated): the GI50 in the assay with 786-0 was 10.8 µM (inactive); in the assay on A498, 4.46 µM (inactive); with ACHN, 14 µM (inactive); with BT-549 it was 16.4 µM (inactive); in the assay with HOP-92, 2.38 µM (inactive); with Hs-578T, 20.8 µM (inactive). The GI50 is 4.6 µM (inactive) in the assay on K562; 6.85 µM (inactive) in the assay on LOX IMVI; 13.4 µM (inactive) in the assay on NCI-H23; 5.57 µM (inactive) in the assay with NCI-H460; 6.49 µM (inactive) in the assay with NCI-H522; 9.82 µM (inactive) in the assay with OVCAR-3. Also, the GI50 with RXF 393 is 11.5 µM (inactive); with SF-268, 16 µM (inactive); with SK-MEL-5, 9.31 µM (inactive); in the assay with SW-620, 17.6 µM (inactive); with UACC-257, 22.2 µM (inactive); in the assay on UACC-62, 12.5 µM (inactive). Further, the GI50 in the assay with UO-31 is 11.4 µM (inactive).
On to `CC(C)[Si](OC1=CCC[C@H]2NC(=O)[C@@H](Cc3ccc([N+](=O)[O-])cc3)[C@@]12C)(C(C)C)C(C)C`, for which the GI50 in the assay with 786-0 is 5.11 µM (inactive); with ACHN, 1.49 µM (inactive); in the assay on BT-549, 3.76 µM (inactive); in the assay on Hs-578T, 7.31 µM (inactive); in the assay with K562, 3.06 µM (inactive); in the assay on LOX IMVI, 4.9 µM (inactive). Further, the GI50 was 5.53 µM (inactive) with NCI-H23; 3.35 µM (inactive) in the assay with NCI-H460; 4.95 µM (inactive) in the assay on NCI-H522; 4.34 µM (inactive) in the assay on OVCAR-3; 2.15 µM (inactive) in the assay on RXF 393; 7.52 µM (inactive) with SF-268. The GI50 was 2.3 µM (inactive) with SK-MEL-5; 2.79 µM (inactive) with SR; 5.47 µM (inactive) with UACC-257; 14.2 µM (inactive) with UACC-62; 13.4 µM (inactive) with UO-31.
As for `N#Cc1c(N2CCC(O)C2)c2ccccc2n2c1nc1ccccc12` (configuration not stated), the GI50 in the assay with 786-0 is 17.1 µM (inactive); in the assay on A498, 31.3 µM (inactive); in the assay with ACHN, 18.2 µM (inactive); with BT-549, 46.9 µM (inactive); in the assay on HOP-92, 41.1 µM (inactive); with Hs-578T, 29.2 µM (inactive). The GI50 in the assay with LOX IMVI is > 100 µM (inactive); with NCI-H23 it was 67.6 µM (inactive); in the assay with NCI-H460 it was > 100 µM (inactive); in the assay on NCI-H522, 47.5 µM (inactive); in the assay on OVCAR-3 it was > 100 µM (inactive); in the assay with SF-268, 43.7 µM (inactive). The GI50 in the assay with SK-MEL-5, in the assay with SW-620, in the assay with UACC-257, in the assay on UACC-62 and in the assay with UO-31 was > 100 µM (inactive) in each case.
On to `CC1(C)CC2=C(SC3C=CC=CC3N2)C(=O)C1C(=O)C(N)=O` (configuration not stated), for which the GI50 with 786-0, in the assay on ACHN, in the assay with BT-549, in the assay on HOP-92, with Hs-578T and with LOX IMVI was > 100 µM (inactive) throughout. The GI50 is > 100 µM (inactive) in the assay with NCI-H23; > 100 µM (inactive) with NCI-H460; 72.3 µM (inactive) with NCI-H522; > 100 µM (inactive) in the assay with OVCAR-3; > 100 µM (inactive) in the assay with SF-268; > 100 µM (inactive) in the assay on SK-MEL-5. The GI50 is > 100 µM (inactive) in the assay with SW-620, > 100 µM (inactive) in the assay with UACC-257, > 100 µM (inactive) in the assay with UACC-62 and 54.5 µM (inactive) in the assay on UO-31.
For `CC(C)CCC[C@@H](C)C1CCC2[C@@H]3CCC4C[C@@H](NS(C)(=O)=O)CC[C@]4(C)C3CC[C@@]21C` (some centres not stated), the GI50 in the assay on 786-0, in the assay on BT-549, with Hs-578T, with K562, in the assay with LOX IMVI and in the assay with NCI-H23 was > 100 µM (inactive) in each case. Moreover, the GI50 in the assay on NCI-H460, with NCI-H522, in the assay with OVCAR-3, in the assay with RXF 393, in the assay on SF-268 and with SK-MEL-5 was > 100 µM (inactive) in each case. The GI50 with SR, in the assay with SW-620, in the assay on UACC-257, with UACC-62 and in the assay on UO-31 was > 100 µM (inactive) throughout.
For `C=C(C)[C@H]1CC23C(=O)C(C(=O)C(C)C)=C(O)[C@](C)(C[C@H]2C1(C)C)C3=O` [LALIBINONE B], the GI50 in the assay on 786-0 was 15.6 µM (inactive); with ACHN, 16.6 µM (inactive); in the assay on BT-549, 17.5 µM (inactive); with Hs-578T, 23 µM (inactive); with K562, 20.5 µM (inactive); in the assay on LOX IMVI it was 20.7 µM (inactive). Besides, the GI50 is 18.9 µM (inactive) in the assay with NCI-H23; 17 µM (inactive) in the assay on NCI-H460; 16.5 µM (inactive) in the assay on NCI-H522; 16.1 µM (inactive) with OVCAR-3; 12.9 µM (inactive) in the assay on RXF 393; 18.1 µM (inactive) in the assay with SF-268. Moreover, the GI50 in the assay on SK-MEL-5 was 17.7 µM (inactive); in the assay with SR, 14.5 µM (inactive); with SW-620, 17.8 µM (inactive); in the assay with UACC-257, 24 µM (inactive); in the assay with UACC-62, 16.3 µM (inactive); in the assay with UO-31, 18.3 µM (inactive).

The record behind these values is ChEMBL document CHEMBL1201862, “PubChem BioAssay data set” (2004).
